This is an account of results in publication PMC9851200, “Multiparameter phenotypic screening for endogenous TFEB and TFE3 translocation identifies novel chemical series modulating lysosome function” (Autophagy, 2022).

In one series the test system is endogenous TFE3. Description: TFE3 nuclear translocation, immunocytochemistry high-content imaging. Format: cell-based. To be noted: PKIS2 primary screening.
Series [1] relates to SH-SY5Y cells. Description: Chemotype enrichment analysis of PKIS2 primary screen hit categories. To be noted: PKIS2 primary screening, hit category.
Series [2] has as its system SH-SY5Y cells. Description: Nuclear count from microscopy images (cellular growth and toxicity). Note: reference of the scale not given here. The note with it: PKIS2 primary screening.
The subject of series [3] is SH-SY5Y cells. To be noted: PKIS2 primary screening.
Text: The PKIS2 Library was supplied by The Structural Genomics Consortium at the University of North Carolina at Chapel Hill.
The subject of a further series is endogenous TFEB. The series can be described thus: TFEB nuclear translocation, immunocytochemistry high-content imaging. Format: cell-based. The note with it: PKIS2 primary screening.
Series [4] concerns SH-SY5Y cells. Description: AK (adenylate kinase) release ToxiLight cytotoxicity assay. Note: reference of the scale not given here. The note with it: PKIS2 primary screening.

Like-named read-outs stand apart in the source and are kept apart here.
Throughout, for DQ Intensity: reference of the scale not given here.
Throughout, for DQ Spot: reference of the scale not given here.

In turn, `CC(C)(C)c1ccc2nccc(Nc3cccc(O)c3)c2c1` [UNC10225361A] returned a TFE3 % in the series with endogenous TFE3 of 26.88%. In addition, the Outcome entry in the series on SH-SY5Y cells [1] is listed as “LYSO TOXIC”. For the same compound, in the series with SH-SY5Y cells [2], the “Nuclear Count” value is given as 71.73. In addition, the “DQ Intensity” value in the series on SH-SY5Y cells [3] (DQ Red BSA intensity) was 97.55. Besides, in the series on SH-SY5Y cells [3] (DQ Red BSA spot count), the “DQ Spot” value worked out at 54.23. In the series on endogenous TFEB, this compound gave a TFEB % of 10.76%. The compound also had an AK in the series on SH-SY5Y cells [4] of 101.00.

`Cl.Oc1cccc(Nc2ccnc3cc(-c4ccncc4)ccc23)c1` [UNC10225467A] had a TFE3 % with endogenous TFE3 of 10.65%. Besides, the Outcome result in the series with SH-SY5Y cells [1] is “LYSO TOXIC”. In addition, the “Nuclear Count” value with SH-SY5Y cells [2] is reported as 88.58. In the series with SH-SY5Y cells [3] (DQ Red BSA intensity), the “DQ Intensity” value came out at 34.95. Besides, the “DQ Spot” value in the series on SH-SY5Y cells [3] (DQ Red BSA spot count) was found to be 51.42. The same compound gave a TFEB % in the series with endogenous TFEB of 5.92%. Further, in the series with SH-SY5Y cells [4], the AK turned out to be 125.78.

`CC(C)c1nc(-c2cccc(NS(=O)(=O)c3c(F)cccc3F)c2)c(-c2ccnc(Nc3ccc(N4CCOCC4)nc3)n2)s1.Cl` [UNC10225142A] showed a TFE3 % with endogenous TFE3 of 11.69%. In addition, in the series on SH-SY5Y cells [2], the “Nuclear Count” value amounted to 103.74. Further, in the series with SH-SY5Y cells [3], the “DQ Intensity” value amounted to 106.42 and the “DQ Spot” value is 109.80. For the same compound, the TFEB % in the series with endogenous TFEB stood at 18.86%. In the series on SH-SY5Y cells [4], this compound returned an AK of 81.90.

As for `COc1cc2ncn(-c3cc(OCC4CCCCC4)c(C(N)=O)s3)c2cc1OC` [UNC10225496A], in the series on endogenous TFE3, the TFE3 % is given as 7.72%. Moreover, the “Nuclear Count” value in the series with SH-SY5Y cells [2] was determined as 113.87. For the same compound, in the series with SH-SY5Y cells [3], the “DQ Intensity” value worked out at 104.41 and the “DQ Spot” value stood at 104.84. Besides, in the series on endogenous TFEB, the TFEB % amounted to 3.76%. In addition, in the series on SH-SY5Y cells [4], the AK is on record as 73.76.

For `CSc1nn2c(=O)cc(N3CCOCC3)nc2n1Cc1cccc(C(F)(F)F)c1C` [UNC10225417A], the TFE3 % in the series with endogenous TFE3 is on record as 6.63%. Further, the “Nuclear Count” value in the series with SH-SY5Y cells [2] amounted to 112.74. For the same compound, in the series with SH-SY5Y cells [3], the “DQ Intensity” value is 90.90 and the “DQ Spot” value is recorded as 96.76. In the series on endogenous TFEB, this compound registered a TFEB % of 3.46%. This compound also showed an AK in the series with SH-SY5Y cells [4] of 90.24.

Regarding `CN(C)CCOc1ccc(-c2cc(-c3c[nH]nc3-c3ccccn3)ccn2)cc1` [UNC10225226A], the TFE3 % in the series with endogenous TFE3 amounted to 7.10%. The “Nuclear Count” value in the series with SH-SY5Y cells [2] was found to be 49.06. Moreover, the “DQ Intensity” value in the series on SH-SY5Y cells [3] (DQ Red BSA intensity) amounted to 136.49. For the same compound, the “DQ Spot” value with SH-SY5Y cells [3] (DQ Red BSA spot count) amounted to 114.20. The TFEB % in the series with endogenous TFEB is given as 11.71%. The compound further showed an AK in the series on SH-SY5Y cells [4] of 93.65.

`COc1cccc(CNC(=O)NC2CCN(c3ccnc(Nc4cc(OC)c(OC)c(OC)c4)n3)C2)c1` (centres unmarked) [GSK1379765] yielded a TFE3 % with endogenous TFE3 of 15.97%. Also, in the series on SH-SY5Y cells [2], the “Nuclear Count” value stood at 98.25. For the same compound, the “DQ Intensity” value in the series on SH-SY5Y cells [3] (DQ Red BSA intensity) is given as 73.44. Besides, in the series with SH-SY5Y cells [3] (DQ Red BSA spot count), the “DQ Spot” value is 97.23. In the series on endogenous TFEB, this compound had a TFEB % of 3.20%. In addition, in the series with SH-SY5Y cells [4], the AK is reported as 74.87.

`Fc1cc(Cl)ccc1Nc1ccnc2cc(-c3ccc(CN4CCCCC4)o3)ccc12` [UNC10225220A] yielded a TFE3 % in the series on endogenous TFE3 of 18.00%. For the same compound, in the series with SH-SY5Y cells [2], the “Nuclear Count” value turned out to be 76.92. Besides, the “DQ Intensity” value with SH-SY5Y cells [3] (DQ Red BSA intensity) was found to be 113.72. For the same compound, in the series with SH-SY5Y cells [3] (DQ Red BSA spot count), the “DQ Spot” value was 129.26. In the series with endogenous TFEB, this compound returned a TFEB % of 3.77%. The compound further registered an AK in the series on SH-SY5Y cells [4] of 82.41.

`Nc1nc(-c2nccs2)c(-c2ccnc3ccccc23)s1` [UNC10225429A] showed a TFE3 % in the series with endogenous TFE3 of 19.15%. In addition, the “Nuclear Count” value with SH-SY5Y cells [2] came out at 118.67. For the same compound, the “DQ Intensity” value in the series with SH-SY5Y cells [3] (DQ Red BSA intensity) is given as 102.85. Moreover, in the series on SH-SY5Y cells [3] (DQ Red BSA spot count), the “DQ Spot” value came out at 117.25. For the same compound, the TFEB % with endogenous TFEB is recorded as 3.83%. The compound further showed an AK with SH-SY5Y cells [4] of 94.26.

In the series with endogenous TFE3, `Nc1ncnc2c1ncn2-c1ccc(Cl)cc1` [UNC10225203A] showed a TFE3 % of 14.23%. Further, the “Nuclear Count” value with SH-SY5Y cells [2] was 80.96. Also, in the series on SH-SY5Y cells [3], the “DQ Intensity” value came out at 65.28 and the “DQ Spot” value is given as 88.83. The compound further registered a TFEB % in the series with endogenous TFEB of 5.10%. For the same compound, the AK in the series with SH-SY5Y cells [4] was 145.27.

Consider `CN1CCN(CCNc2nc3ccc(Oc4ccc(NC(=O)Nc5cc(C(F)(F)F)ccc5F)cc4)cc3[nH]2)CC1` [GW768504], for which, in the series with endogenous TFE3, the TFE3 % worked out at 12.94%. Moreover, the “Nuclear Count” value in the series with SH-SY5Y cells [2] turned out to be 72.38. Moreover, the “DQ Intensity” value in the series on SH-SY5Y cells [3] (DQ Red BSA intensity) is 103.13. The “DQ Spot” value with SH-SY5Y cells [3] (DQ Red BSA spot count) is 113.95. Also, the TFEB % in the series on endogenous TFEB is listed as 4.72%. For the same compound, in the series on SH-SY5Y cells [4], the AK worked out at 155.92.

As to `Cc1occc1-c1ncc(OC[C@@H](N)Cc2c[nH]c3ccccc23)cc1-c1ccc2[nH]nc(C)c2c1.O=C(O)C(F)(F)F` [UNC10243880A], the TFE3 % with endogenous TFE3 worked out at 39.74%. Also, in the series with SH-SY5Y cells [2], the “Nuclear Count” value is 69.84. In addition, in the series on SH-SY5Y cells [3], the “DQ Intensity” value is given as 77.42 and the “DQ Spot” value is given as 58.66. In the series on endogenous TFEB, the TFEB % is listed as 19.77%. For the same compound, the AK with SH-SY5Y cells [4] is recorded as 148.86.

Take `CC(C)S(=O)(=O)N1CCN(Cc2ccc3c(c2)nc(NC(=O)c2ccsc2)n3C[C@H](O)c2ccccc2)CC1` [GW635815]: in the series on endogenous TFE3, the TFE3 % was found to be 6.25%. Moreover, the “Nuclear Count” value with SH-SY5Y cells [2] worked out at 125.41. Moreover, the “DQ Intensity” value in the series on SH-SY5Y cells [3] (DQ Red BSA intensity) was 100.23. Also, the “DQ Spot” value with SH-SY5Y cells [3] (DQ Red BSA spot count) is 98.01. Also, the TFEB % in the series on endogenous TFEB is 6.81%. Also, the AK with SH-SY5Y cells [4] is given as 78.91.
